Measurements as given in ChEMBL document CHEMBL1156544, “Bioactive brominated metabolites from the red sea sponge Suberea mollis” (2008).
The source made the active and inactive calls. The rule behind the calls is not given here.

Columns and labels:
[1] = test system: Radical scavenging activity; assay: Antioxidant activity assessed as DPPH radical scavenging activity at 6 ug; type: functional
Staphylococcus aureus [2] = assay: Antibacterial activity against Staphylococcus aureus ATCC 6538P assessed as inhibition zone diameter after 24 hrs by agar diffusion method; type: functional
Pseudomonas aeruginosa [3] = assay: Antibacterial activity against Pseudomonas aeruginosa ATCC 9027 assessed as inhibition zone diameter after 24 hrs by agar diffusion method; type: functional
Klebsiella pneumoniae [4] = assay: Antibacterial activity against Klebsiella pneumoniae ATCC 10032 assessed as inhibition zone diameter after 24 hrs by agar diffusion method; type: functional
Staphylococcus aureus [5] = assay: Antibacterial activity against Staphylococcus aureus ATCC 6538P assessed as inhibition zone diameter at 15 ug/disk after 24 hrs by agar diffusion method; type: functional; settings: read-out: IZ
Pseudomonas aeruginosa [6] = assay: Antibacterial activity against Pseudomonas aeruginosa ATCC 9027 assessed as inhibition zone diameter at 15 ug/disk after 24 hrs by agar diffusion method; type: functional, organism-based
Klebsiella pneumoniae [7] = assay: Antibacterial activity against Klebsiella pneumoniae ATCC 10032 assessed as inhibition zone diameter at 15 ug/disk after 24 hrs by agar diffusion method; type: functional, organism-based
Staphylococcus aureus [8] = assay: Antibacterial activity against Staphylococcus aureus ATCC 6538P assessed as inhibition zone diameter at 30 ug/disk after 24 hrs by agar diffusion method; type: functional; settings: read-out: IZ
Pseudomonas aeruginosa [9] = assay: Antibacterial activity against Pseudomonas aeruginosa ATCC 9027 assessed as inhibition zone diameter at 30 ug/disk after 24 hrs by agar diffusion method; type: functional; settings: ATCC 9027, 24 h, read-out: IZ
Klebsiella pneumoniae [10] = assay: Antibacterial activity against Klebsiella pneumoniae ATCC 10032 assessed as inhibition zone diameter at 30 ug/disk after 24 hrs by agar diffusion method; type: functional; settings: ATCC 10032, 24 h, read-out: IZ
Staphylococcus aureus [11] = assay: Antibacterial activity against Staphylococcus aureus ATCC 6538P assessed as inhibition zone diameter at 5 ug/disk after 24 hrs by agar diffusion method; type: functional, organism-based
Pseudomonas aeruginosa [12] = assay: microbe, parasite or virus in culture; settings: ATCC 9027, 24 h, read-out: IZ
Description: Antibacterial activity against Pseudomonas aeruginosa ATCC 9027 assessed as inhibition zone diameter at 5 ug/disk after 24 hrs by agar diffusion method

Klebsiella pneumoniae [13] = assay: microbe, parasite or virus in culture; settings: ATCC 10032, 24 h, read-out: IZ
Description: Antibacterial activity against Klebsiella pneumoniae ATCC 10032 assessed as inhibition zone diameter at 5 ug/disk after 24 hrs by agar diffusion method

CCOC(=O)Cc1cc(Br)c(O)c(Br)c1O
Activity [1]: Active

COC1=C(Br)[C@H](O)[C@@]2(C=C1Br)CC(C(=O)NCCCCNC(=O)C1=NO[C@]3(C=C(Br)C(OC)=C(Br)[C@@H]3O)C1)=NO2 [AEROTHIONIN]
inhibition zone (IZ) (Staphylococcus aureus [2]): 5 mm
Activity (Pseudomonas aeruginosa [3]): inactive
inhibition zone (IZ) (Klebsiella pneumoniae [4]): 3 mm

COC(=O)Cc1cc(Br)c(O)c(Br)c1O [SUBEREAPHENOL B]
inhibition zone (IZ) (Staphylococcus aureus [2]): 5 mm
Activity (Pseudomonas aeruginosa [3]): inactive
Activity (Klebsiella pneumoniae [4]): inactive
Activity [1]: Active

COC1=C(Br)[C@H](O)[C@@]2(C=C1Br)CC(C(=O)NCCCOc1c(Br)cc(CCNC(=O)C3=NO[C@]4(C=C(Br)C(OC)=C(Br)[C@@H]4O)C3)cc1Br)=NO2
Activity (Staphylococcus aureus [2]): inactive
Activity (Pseudomonas aeruginosa [3]): inactive
Activity (Klebsiella pneumoniae [4]): inactive

COC1=C(Br)[C@H](O)[C@@]2(C=C1Br)CC(C(=O)NCCCCCNC(=O)C1=NO[C@]3(C=C(Br)C(OC)=C(Br)[C@@H]3O)C1)=NO2 [HOMOAEROTHIONIN]
inhibition zone (IZ) (Staphylococcus aureus [2]): 3 mm
Activity (Pseudomonas aeruginosa [3]): inactive
Activity (Klebsiella pneumoniae [4]): inactive

CC[C@H]1OC(=O)[C@H](C)[C@@H](O[C@H]2C[C@@](C)(OC)[C@@H](O)[C@H](C)O2)[C@H](C)[C@@H](O[C@@H]2O[C@H](C)C[C@H](N(C)C)[C@H]2O)[C@](C)(O)C[C@@H](C)C(=O)[C@H](C)[C@@H](O)[C@]1(C)O [ERYTHROMYCIN]
zone of inhibition at 15 µg/disc (Staphylococcus aureus [5]): 8 mm
Activity (Pseudomonas aeruginosa [6]): inactive
Activity (Klebsiella pneumoniae [7]): inactive

COC1=C(Br)[C@H](O)[C@](O)(CC#N)C=C1Br
inhibition zone (IZ) (Staphylococcus aureus [2]): 9 mm
inhibition zone (IZ) (Pseudomonas aeruginosa [3]): 11 mm
inhibition zone (IZ) (Klebsiella pneumoniae [4]): 7 mm

O=C(N[C@H](CO)[C@H](O)c1ccc([N+](=O)[O-])cc1)C(Cl)Cl [CHLORAMPHENICOL]
zone of inhibition at 30 µg/disc (Staphylococcus aureus [8]): 9 mm
zone of inhibition at 30 µg/disc (Pseudomonas aeruginosa [9]): 7 mm
zone of inhibition at 30 µg/disc (Klebsiella pneumoniae [10]): 10 mm

O=C(O)c1cn(C2CC2)c2cc(N3CCNCC3)c(F)cc2c1=O [CIPROFLOXACIN]
Activity (Staphylococcus aureus [11]): inactive
zone of inhibition at 5 µg/disc (Pseudomonas aeruginosa [12]): 2 mm
zone of inhibition at 5 µg/disc (Klebsiella pneumoniae [13]): 8 mm

COC1=C(Br)[C@@H]2OC(=O)C[C@]2(O)C=C1Br
inhibition zone (IZ) (Staphylococcus aureus [2]): 5 mm
Activity (Pseudomonas aeruginosa [3]): inactive
Activity (Klebsiella pneumoniae [4]): inactive

CCOC(=O)NCCCCNC(=O)C1=NO[C@]2(C=C(Br)C(OC)=C(Br)[C@@H]2O)C1 [SUBEREAMOLLINE A]
inhibition zone (IZ) (Staphylococcus aureus [2]): 3 mm
Activity (Pseudomonas aeruginosa [3]): inactive
Activity (Klebsiella pneumoniae [4]): inactive
